Measurements taken from ChEMBL document CHEMBL1155750, “Four new coumarin derivatives from Artemisia keiskeana” (J Nat Prod, 2001).
≈ marks a conversion by molar mass, not a printed value.

Tests used:
[1] = Toxicity in brine shrimp; type: organism-based; details: artemia, in vivo
[2] = system: Artemia; assay: Toxicity in brine shrimp at 100 ug/mL; type: organism-based; details: in vivo

| SMILES | LC50 [1] [µg/mL] | Activity [2] |
| --- | --- | --- |
| COc1cc2ccc(=O)oc2cc1OC/C=C(\C)CC/C=C(\C)CO [ARTEKEISKEANOL A] | 60 (≈ 174 µM) |  |
| COc1cc2ccc(=O)oc2cc1OC/C=C(\C)CC/C=C(/C)CO [ARTEKEISKEANOL B] | 70 (≈ 203 µM) |  |
| COc1cc2ccc(=O)oc2c(OC)c1OC/C=C(\C)CC/C=C(\C)CO [ARTEKEISKEANOL C] |  | Non-toxic |
| COc1cc2ccc(=O)oc2c(OC)c1OC/C=C(\C)CC/C=C(/C)CO [ARTEKEISKEANOL D] |  | Non-toxic |
